The source made the active and inactive calls. The rule behind the calls is not given here.
Assays:
[1] = molecular target: P2Y purinoceptor 6 (Rattus norvegicus) (UniProt Q63371); assay: (§1) Antagonist activity at rat P2Y6 receptor expressed in human 1321N1 cells assessed as inhibition of UDP-induced intracellular calcium influx at 10 to 100 uM preincubated for 20 mins followed by UDP addition measured at 0.4 secs interval for 60 times by Oregon Green BAPTA-1/AM dye-based fluorescence assay; type: functional, cell-based; conditions: dose 10-100 µM
P2Y purinoceptor 6 (Rattus norvegicus), sequence (Q63371 whole entry): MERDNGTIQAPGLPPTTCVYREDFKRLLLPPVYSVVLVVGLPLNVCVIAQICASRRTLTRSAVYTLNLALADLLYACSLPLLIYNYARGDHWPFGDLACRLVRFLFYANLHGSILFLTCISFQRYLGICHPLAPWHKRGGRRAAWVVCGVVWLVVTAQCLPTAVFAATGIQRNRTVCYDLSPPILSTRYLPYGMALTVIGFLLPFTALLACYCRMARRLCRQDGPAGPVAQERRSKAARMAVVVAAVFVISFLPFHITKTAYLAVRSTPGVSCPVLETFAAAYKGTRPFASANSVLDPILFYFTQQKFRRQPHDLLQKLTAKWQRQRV

[2] = molecular target: P2Y purinoceptor 12 (Homo sapiens) (UniProt Q9H244); assay: Antagonist activity at recombinant human Gi/Go-coupled GP2Y12 receptor expressed in CHOK1 cells assessed as inhibition of 2-(Methylthio)ADP-induced inhibition of beta-arrestin recruitment at 10 uM by pathhunter assay; type: cell-based; conditions: CHO-K1
P2Y purinoceptor 12 (Homo sapiens), sequence (Q9H244 whole entry): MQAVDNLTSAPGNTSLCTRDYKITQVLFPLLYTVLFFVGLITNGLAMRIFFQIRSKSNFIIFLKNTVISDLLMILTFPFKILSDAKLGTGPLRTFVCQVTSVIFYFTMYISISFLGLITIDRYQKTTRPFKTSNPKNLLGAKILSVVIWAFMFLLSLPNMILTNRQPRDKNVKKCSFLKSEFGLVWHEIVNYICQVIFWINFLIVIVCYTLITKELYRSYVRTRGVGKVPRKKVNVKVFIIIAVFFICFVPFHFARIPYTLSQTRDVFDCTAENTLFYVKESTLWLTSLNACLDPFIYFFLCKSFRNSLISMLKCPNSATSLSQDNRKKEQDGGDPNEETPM

[3] = molecular target: P2Y purinoceptor 4 (Homo sapiens) (UniProt P51582); assay: as §1, with “human P2Y4” for “rat P2Y6”, “UTP-induced” for “UDP-induced”, “UTP” for “UDP”; type: functional, cell-based; conditions: dose 10-100 µM
P2Y purinoceptor 4 (Homo sapiens), sequence (P51582 whole entry): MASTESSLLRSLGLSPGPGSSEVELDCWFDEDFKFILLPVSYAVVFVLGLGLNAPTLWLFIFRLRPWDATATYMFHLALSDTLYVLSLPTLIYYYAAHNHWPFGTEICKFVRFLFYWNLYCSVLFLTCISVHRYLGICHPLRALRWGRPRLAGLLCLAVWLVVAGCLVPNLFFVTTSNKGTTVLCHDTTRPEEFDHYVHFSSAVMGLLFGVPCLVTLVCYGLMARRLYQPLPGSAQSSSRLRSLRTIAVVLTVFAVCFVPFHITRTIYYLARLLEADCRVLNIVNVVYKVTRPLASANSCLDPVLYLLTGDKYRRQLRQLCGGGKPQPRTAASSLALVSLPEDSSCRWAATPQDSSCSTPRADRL

[4] = molecular target: P2Y purinoceptor 1 (Homo sapiens) (UniProt P47900); assay: Antagonist activity at human P2Y1 receptor expressed in human 1321N1 cells assessed as inhibition of ADP-induced intracellular calcium influx at 10 uM preincubated for 20 mins followed by ADP addition measured at 0.4 secs interval for 60 times by Oregon Green BAPTA-1/AM dye-based fluorescence assay; type: functional, cell-based
P2Y purinoceptor 1 (Homo sapiens), sequence (P47900 whole entry): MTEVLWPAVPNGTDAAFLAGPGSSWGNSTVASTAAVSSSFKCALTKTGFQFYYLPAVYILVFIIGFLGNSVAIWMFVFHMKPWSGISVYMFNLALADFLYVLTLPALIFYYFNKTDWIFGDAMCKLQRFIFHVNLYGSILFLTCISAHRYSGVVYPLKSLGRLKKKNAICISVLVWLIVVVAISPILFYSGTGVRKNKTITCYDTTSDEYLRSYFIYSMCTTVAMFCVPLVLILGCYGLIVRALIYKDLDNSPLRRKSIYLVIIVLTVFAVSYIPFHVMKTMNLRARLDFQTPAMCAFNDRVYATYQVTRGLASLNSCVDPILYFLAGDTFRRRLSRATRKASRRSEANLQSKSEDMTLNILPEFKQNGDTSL

[5] = molecular target: T1, P2Y purinoceptor 14 (Homo sapiens) (UniProt Q15391); assay: Antagonist activity at recombinant human Gi/Go-coupled GP2Y14 receptor expressed in CHOK1 cells assessed as inhibition of […]-induced inhibition of beta-arrestin recruitment at 10 uM by pathhunter assay; type: cell-based
T1 sequence (whole entry): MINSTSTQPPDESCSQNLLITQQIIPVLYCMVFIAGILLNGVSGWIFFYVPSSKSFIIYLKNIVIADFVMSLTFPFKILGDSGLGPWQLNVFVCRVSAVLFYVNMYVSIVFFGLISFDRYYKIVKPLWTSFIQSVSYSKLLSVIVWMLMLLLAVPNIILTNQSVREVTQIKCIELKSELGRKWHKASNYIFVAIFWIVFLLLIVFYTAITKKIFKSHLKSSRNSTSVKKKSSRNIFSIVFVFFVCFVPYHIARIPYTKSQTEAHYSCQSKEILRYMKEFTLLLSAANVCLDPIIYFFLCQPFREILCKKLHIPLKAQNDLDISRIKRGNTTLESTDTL

| Structure (SMILES) | inhibition [1] | inhibition [2] | inhibition [3] | inhibition [4] | inhibition [5] |
| --- | --- | --- | --- | --- | --- |
| Cc1cccc(C(=O)Nc2ccc(S(=O)(=O)Oc3cccc(C#N)c3)cc2)c1 | inactive | inactive | inactive | inactive | inactive |
| Cc1cccc(C(=O)Nc2ccc(NC(=O)c3cccc([N+](=O)[O-])c3)cc2)c1 | inactive | inactive | inactive | inactive | inactive |
| Cc1cccc(C(=O)Nc2ccc(S(=O)(=O)Oc3ccc([N+](=O)[O-])cc3)cc2)c1 | inactive | inactive | inactive | inactive | inactive |
| Cc1cccc(C(=O)Nc2ccc(NC(=O)c3ccc([N+](=O)[O-])cc3)cc2)c1 | inactive | inactive | inactive | inactive | inactive |
| Cc1cccc(NC(=O)c2cccc(NC(=O)c3ccc([N+](=O)[O-])cc3)c2)c1 | inactive | inactive | inactive | inactive | inactive |
| Cc1cccc(NC(=O)c2ccc(NC(=O)c3cccc([N+](=O)[O-])c3)cc2)c1 | inactive | inactive | inactive | inactive | inactive |
| Cc1cccc(C(=O)Nc2cccc(NC(=O)Nc3cccc(C(=O)O)c3)c2)c1 | inactive | inactive | inactive | inactive | inactive |
| Cc1cccc(C(=O)Nc2cccc(NC(=O)c3cccc([N+](=O)[O-])c3)c2)c1 | inactive | inactive | inactive | inactive | inactive |
| Cc1cccc(NC(=O)c2cccc(NC(=O)Nc3cccc(C(=O)O)c3)c2)c1 | inactive | inactive | inactive | inactive | inactive |
| COC(=O)c1cccc(NC(=O)Nc2cccc(NC(=O)c3cccc(C)c3)c2)c1 | inactive | inactive | inactive | inactive | inactive |

Other lines, results leading:

| inhibition [1] | inhibition [2] | inhibition [3] | inhibition [4] | inhibition [5] | Structure (SMILES) |
| --- | --- | --- | --- | --- | --- |
| inactive | inactive | inactive | inactive | inactive | O=C(Nc1ccc(S(=O)(=O)Oc2cccc([N+](=O)[O-])c2)cc1)c1cccc(Br)c1 |
| inactive | inactive | inactive | inactive | inactive | O=C(Nc1ccc(S(=O)(=O)Oc2cccc([N+](=O)[O-])c2)cc1)c1ccc(Cl)c(Cl)c1 |
| inactive | inactive | inactive | inactive | inactive | O=C(Nc1cccc(S(=O)(=O)Oc2cccc([N+](=O)[O-])c2)c1)c1ccc(Cl)cc1 |
| inactive | inactive | inactive | inactive | inactive | O=C(Nc1ccc(S(=O)(=O)Oc2cccc([N+](=O)[O-])c2)cc1)c1cccc(F)c1 |
| inactive | inactive | inactive | inactive | inactive | O=C(Nc1ccc(S(=O)(=O)Oc2cccc([N+](=O)[O-])c2)cc1)c1ccc(Cl)cc1 |
| inactive | inactive | inactive | inactive | inactive | O=C(Nc1cccc(S(=O)(=O)Oc2cccc([N+](=O)[O-])c2)c1)c1cccc(Cl)c1 |
